Laboratory results taken from patent publication US9738657B2, “Highly efficient polarizing agents for dynamic nuclear polarization” (Bruker Biospin S.A.S., priority 2013, dated 2017).
Converted amounts (≈) assume the structure as drawn.

Test: Solubility in Glycerol/H2O (60/40)
Settings: Glycerol/H2O (60/40)

Compound | Solubility in Glycerol/H2O (60/40) [mM]
4,4-ureylene-di-(2,2,6,6-tetramethylpiperidinyloxyl) [bTUrea, reference compound] | ~3
(4-{(2,5,8,11-tetraoxatridecan-13-yl)[(1-oxyl-2,2,6,6-tetramethyl piperidin-4-yl)carbamoyl]amino}-2,2,6,6-tetramethylpiperidin-1-yl)oxidanyl [Compound 52] | ~10
(4-{[2-(2-methoxyethoxy)ethyl][(1-oxyl-2,2,6,6-tetramethylpiperidin-4-yl)carbamoyl]amino}-2,2,6,6-tetramethylpiperidin-1-yl)oxidanyl [Compound 51] | ~10
(15-{[(7-oxyl-3,11-dioxa-7-azadispiro[5.1.5.3]hexadec-15-yl)carbamoyl][2-(2,5,8,11-tetraoxatridecan-13-ylamino)}-[3,11-dioxa-7-azadispiro[5.1.5.3]hexadec-7-yl])oxidanyl [Compound 58] | ~25
(4-{3-[1-(PEG)-1H-1,2,3-Triazol-4-yl]propyl}[(1-oxyl-2,2,6,6-tetramethylpiperidin-4-yl)carbamoyl]amino}-2,2,6,6-tetramethylpiperidin-1-yl)oxidanyl [Compound 61] | ~20
(15-{[(7-oxyl-3,11-dioxa-7-azadispiro[5.1.5.3]hexadec-15-yl)carbamoyl][2-(2-methoxyethoxy)ethyl]amino}-[3,11-dioxa-7-azadispiro[5.1.5.3]hexadec-7-yl])oxidanyl [Compound 57] | ~25
α-{(7-Oxyl-3,11-dioxa-7-azadispiro[5.1.5.3]hexadec-15-yl)[(7-oxyl-3,11-dioxa-7-azadispiro[5.1.5.3]hexadec-15-yl)carbamoyl]amino}ω-methylpoly(ethane-1,2-diyloxy) [Compound 72] | >20

Same assay, conditions: glycerol/water (60/40), aqueous with cosolvent or surfactant or cyclodextrin

Compound | solubility [mM]
O=C(NC1CC2(CCOCC2)N(O)C2(CCOCC2)C1)N(CCOCCO)C1CC2(CCOCC2)N(O)C2(CCOCC2)C1 (stereo not shown) [Compound 71, (15-{[(7-Oxyl-3,11-dioxa-7-azadispiro[5.1.5.3]hexadec-15-yl)carbamoyl][2-(2-hydroxyethoxy)ethyl]amino}-[3,11-dioxa-7-azadispiro[5.1.5.3]hexadec-7-yl])oxidanyl] | > 20
[O]N1C2(CCOCC2)CC(NC(=O)NC2CC3(CCOCC3)N([O])C3(CCOCC3)C2)CC12CCOCC2 (stereo not shown) [Compound 56, (15-{[(7-Oxyl-3,11-dioxa-7-azadispiro[5.1.5.3]hexadec-15-yl)carbamoyl]amino}-[3,11-dioxa-7-azadispiro[5.1.5.3]hexadec-7-yl])oxidanyl] | ~25 (≈ 13.4 mg/mL)
COCCOCCOCCOCCOC1CN(C2CC3(CCOCC3)N([O])C3(CCOCC3)C2)C(=O)N(C2CC3(CCOCC3)N([O])C3(CCOCC3)C2)C1 (stereo not shown) [Compound 70, 1,3-Bis(7-oxyl-3,11-dioxa-7-azadispiro[5.1.5.3]hexadec-15-yl)-5-(2,5,8,11-tetraoxatridecan-13-yloxy)tetrahydropyrimidin-2(1H)-one] | > 10
